Read-outs that look alike come from different tables or passages of the source.
How the values were obtained:
Assay type in all cases: biochemical
recombinant human HSD1 = biological target: T1, recombinant human HSD1 (Homo sapiens, UniProt P14061); experiment: HSD1 inhibition, HPLC assay of [3H]-E1 to [3H]-E2 conversion; details: for inhibition at 0.1 µM: average of two measurements; for inhibition at 0.1 µM / inhibition at 1 µM: except for compounds 8 and 9; for inhibition at 1 µM: average of three measurements; for IC50: estimated from three measurements at 1 µM, average ± standard error, read-out: HSD1 inhibition ∼ pIC50 (converted)
T1 construct: made in house; host or cells: Sf9 insect cells
T1 sequence (P14061 1-328): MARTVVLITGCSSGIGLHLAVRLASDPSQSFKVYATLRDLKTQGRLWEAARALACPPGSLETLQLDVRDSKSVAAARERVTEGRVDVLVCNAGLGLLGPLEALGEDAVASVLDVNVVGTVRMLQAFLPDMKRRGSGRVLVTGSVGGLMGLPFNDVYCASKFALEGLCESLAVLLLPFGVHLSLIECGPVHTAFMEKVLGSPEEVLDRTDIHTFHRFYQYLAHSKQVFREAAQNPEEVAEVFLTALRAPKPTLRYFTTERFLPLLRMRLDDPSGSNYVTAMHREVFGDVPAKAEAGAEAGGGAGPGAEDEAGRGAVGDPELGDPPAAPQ
Procedure: The inhibition was determined by HPLC using recombinant human HSD1 and HSD2 proteins as described in a prior study. In short, recombinant human HSD1 and HSD2 were produced in Sf9-insect cells. […] After incubation, the reaction was stopped by addition of […] 10% trichloroacetic acid per sample. […] The ratio of [3H]-E1 converted to [3H]-E2 or vice versa determines the conversion percentage of the samples. Inhibition was measured in three concentrations (100 nM, 1, and 5 µM) in order to follow the progression of inhibition efficiencies. Inhibition efficiencies of the tested inhibitors were calculated by comparing the conversion percentages of the samples including inhibitors with those of conversion controls (without inhibitors).

MAO-A = biological target: T2, MAO-A (Homo sapiens, UniProt P21397); experiment: MAO-A inhibition, continuous spectrophotometric assay; details: read-out: MAO-A inhibition at 100 µM
T2 construct: purchased Sigma-Aldrich (St. Louis, MO)
T2 sequence (P21397 1-527): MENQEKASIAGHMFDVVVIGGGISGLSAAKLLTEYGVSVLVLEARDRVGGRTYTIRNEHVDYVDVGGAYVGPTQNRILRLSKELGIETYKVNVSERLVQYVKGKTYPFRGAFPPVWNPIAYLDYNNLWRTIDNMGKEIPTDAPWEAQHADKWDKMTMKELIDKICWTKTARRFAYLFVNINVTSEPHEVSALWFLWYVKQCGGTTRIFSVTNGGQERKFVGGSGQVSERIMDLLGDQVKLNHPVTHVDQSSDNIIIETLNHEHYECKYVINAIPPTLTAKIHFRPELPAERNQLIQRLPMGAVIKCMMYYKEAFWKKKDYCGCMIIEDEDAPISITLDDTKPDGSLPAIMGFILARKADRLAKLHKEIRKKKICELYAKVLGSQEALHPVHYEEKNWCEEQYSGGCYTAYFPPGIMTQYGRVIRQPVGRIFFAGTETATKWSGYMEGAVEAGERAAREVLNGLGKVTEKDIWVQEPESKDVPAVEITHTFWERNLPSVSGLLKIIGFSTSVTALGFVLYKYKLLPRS
Procedure: (§1) The protocol of continuous spectrophotometric assay by Holt et al. was first used to determine the activity of the proteins. […] The protein was first incubated for 30 min at 37 °C in the chromogenic solution and then the substrate tyramine was introduced at 0.5 mM final plate concentration completing the assay volume. […] The assay should produce absorbance change of ∼0.35[23]. […] These protein concentrations were selected to be used to analyse the molecules 1–9. The analysis conditions followed the above-described assay protocol[23] and the activity of tested molecules was measured at 100 µM for MAO-A and at 10 µM for MAO-B. The analysis was performed as single point measurements and the signal was read by the same instrument at the expected assay maximum indicated by the activity measurements, at 30 min for MAO-A and at 2 h for MAO-B, respectively. […] The observed activity was calculated as inhibition percentage (Table 1).

[1] = biological target: T3, heterologously expressed human CYP1A2 enzyme (Homo sapiens, UniProt P05177); experiment: CYP1A2 inhibition; details: for IC50: read-out: CYP1A2 inhibition ∼ pIC50 (converted)
T3 construct: purchased Corning Inc., Corning, NY
T3 sequence (P05177 1-516): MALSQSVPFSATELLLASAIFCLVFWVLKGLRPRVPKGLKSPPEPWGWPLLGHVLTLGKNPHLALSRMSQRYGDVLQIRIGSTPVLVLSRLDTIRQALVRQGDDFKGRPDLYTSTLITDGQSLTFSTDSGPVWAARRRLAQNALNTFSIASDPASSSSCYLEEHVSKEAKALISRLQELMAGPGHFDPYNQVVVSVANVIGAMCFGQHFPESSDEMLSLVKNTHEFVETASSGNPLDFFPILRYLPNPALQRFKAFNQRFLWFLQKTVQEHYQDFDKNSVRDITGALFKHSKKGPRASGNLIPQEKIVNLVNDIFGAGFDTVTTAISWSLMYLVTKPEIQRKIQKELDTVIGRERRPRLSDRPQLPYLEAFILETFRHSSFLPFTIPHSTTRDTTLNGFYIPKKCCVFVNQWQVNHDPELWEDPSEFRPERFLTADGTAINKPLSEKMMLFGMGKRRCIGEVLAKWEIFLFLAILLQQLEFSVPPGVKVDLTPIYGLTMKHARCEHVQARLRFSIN
Procedure: Inhibition of CYP1A2 activity was determined using commercial heterologously expressed human CYP1A2 enzyme (Corning Inc., Corning, NY) essentially as described previously.

MAO-B [2] = biological target: T4, MAO-B (Homo sapiens, UniProt P27338); experiment: MAO-B inhibition, continuous spectrophotometric assay
T4 construct: purchased Sigma-Aldrich (St. Louis, MO)
T4 sequence (P27338 1-520): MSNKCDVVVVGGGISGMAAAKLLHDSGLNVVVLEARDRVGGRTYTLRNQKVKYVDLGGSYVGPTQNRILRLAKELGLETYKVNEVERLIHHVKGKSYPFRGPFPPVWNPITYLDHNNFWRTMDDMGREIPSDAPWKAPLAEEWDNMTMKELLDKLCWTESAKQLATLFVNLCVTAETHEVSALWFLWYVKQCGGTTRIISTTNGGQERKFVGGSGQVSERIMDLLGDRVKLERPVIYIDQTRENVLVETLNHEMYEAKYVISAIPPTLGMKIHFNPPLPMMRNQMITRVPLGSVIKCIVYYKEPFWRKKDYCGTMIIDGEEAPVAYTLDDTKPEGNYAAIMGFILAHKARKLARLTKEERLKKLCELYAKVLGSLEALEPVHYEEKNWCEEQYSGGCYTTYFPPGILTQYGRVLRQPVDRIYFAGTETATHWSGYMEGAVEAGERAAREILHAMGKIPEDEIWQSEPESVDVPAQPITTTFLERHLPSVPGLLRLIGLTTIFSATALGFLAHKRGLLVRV

MAO-B [3] = biological target: T4, MAO-B; experiment: as above; details: single point, read at 2 h
Procedure: as §1

[4] = 100 nM, read-out: HSD1 inhibition at 100 nM
[5] = 1 µM, read-out: HSD1 inhibition at 1 µM
[6] = 5 µM, read-out: HSD1 inhibition at 5 µM
[7] = 100 µM, single point, read at 30 min
[8] = duplicated dilution series, read-out: MAO-B inhibition pIC50 (converted)
[9] = restated from pIC50 above 6, read-out: MAO-B inhibition IC50
[10] = 10 µM, read-out: MAO-B inhibition at 10 µM

| Compound | inhibition at 0.1 µM (recombinant human HSD1; [4]) [%] | inhibition at 1 µM (recombinant human HSD1; [5]) [%] | inhibition at 5 µM (recombinant human HSD1; [6]) [%] | IC50 (recombinant human HSD1) [nM] | inhibition at 100 µM (MAO-A; [7]) [%] | CYP1A2 inhibition ∼ pIC50 [1] | IC50 (MAO-B [2]; [8]) [nM] | IC50 (MAO-B [2]; [9]) [nM] | inhibition at 10 µM (MAO-B [3]; [10]) [%] | IC50 [1] [nM] | inhibition at 0.1 µM (recombinant human HSD1; read-out: HSD1 inhibition at 100 nM, 100 nM) [%] | inhibition at 1 µM (recombinant human HSD1; read-out: HSD1 inhibition at 1 µM, 1 µM) [%] | inhibition at 5 µM (recombinant human HSD1; read-out: HSD1 inhibition at 5 µM, 5 µM) [%] | inhibition at 100 µM (MAO-A) [%] | inhibition at 10 µM (MAO-B [3]; read-out: MAO-B inhibition at 10 µM, 10 µM) [%] |
| --- | --- | --- | --- | --- | --- | --- | --- | --- | --- | --- | --- | --- | --- | --- | --- |
| COc1ccc2oc(=O)c(-c3ccc(O)c(F)c3)cc2c1 [Compound 7, 3–(3-fluoro-4-hydroxyphenyl)-6-methoxy-2H-chromen-2-one] | 16 | 39 | 62 | 1580 | -11 | 5.82 | 851 | < 1000 | – | – | – | – | – | – | – |
| COc1ccc2cc(-c3ccc(O)c(F)c3)c(=O)oc2c1 [Compound 6, 3–(3-fluoro-4-hydroxyphenyl)-7-methoxy-2H-chromen-2-one] | 14 | 23 | 27 | 3980 | -1 | 4.52 | 407 | < 1000 | – | – | – | – | – | – | – |
| O=c1oc2ccc(Cl)cc2cc1-c1cccc(O)c1 [Compound 4, 6-chloro-3–(3-hydroxyphenyl)-2H-chromen-2-one] | 47 | ≥ 68 | 95 | 158 | – | – | – | – | 64 | 129 | – | – | – | – | – |
| O=c1oc2ccccc2cc1-c1cccc(O)c1 [Compound 3, 3–(3-hydroxyphenyl)-2H-chromen-2-one] | 7 | 47 | 76 | 1260 | 4 | – | – | – | 50 | 7080 | – | – | – | – | – |
| O=c1oc2ccc(O)cc2cc1-c1ccc(O)cc1 [Compound 2, 6-hydroxy-3–(4-hydroxyphenyl)-2H-chromen-2-one] | – | – | – | 631 | – | – | – | – | – | 33100 | 26 | ≥ 68 | 83 | -6 | 16 |
| COc1ccc(-c2cc3cccc(O)c3oc2=O)cc1 [Compound 1, 8-hydroxy-3–(4-methoxyphenyl)-2H-chromen-2-one] | 16 | ≥ 68 | 88 | 501 | 4 | – | – | – | 48 | 85100 | – | – | – | – | – |
